Experimental data reported in PMC10584170, “Machine learning-based phenotypic imaging to characterise the targetable biology of Plasmodium falciparum male gametocytes for the development of transmission-blocking antimalarials” (PLOS Pathogens, 2023).

Assays:
[1] = tested on: P. falciparum male gametocytes; test: P. falciparum Dual Gamete Formation Assay (PfDGFA), male readout (exflagellation); format: cell-based, Plasmodium falciparum NF54; conditions: for Average inhibition male (%): average of replicates; for % inhibition male (individual replicates) R1: replicate R1; for % inhibition male (individual replicates) R4: replicate R4; for % inhibition male (individual replicates) R3: replicate R3; for Activity: hit = >50% inhibition in male or female readout in at least 3 replicates, 0 = no class assigned
Method in brief: (§1)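 Day-14 NF54 gametocytes were incubated with compound for 24 h at 37°C under 1% O2/3% CO2/96% N2. Gametogenesis was triggered with ookinete medium (0.1 μM xanthurenic acid) plus Cy3-anti-Pfs25, and exflagellation was imaged by brightfield after cooling to 4°C then 28°C. Females were imaged by Pfs25 fluorescence 24 h later at 28°C.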

[2] = tested on: P. falciparum female gametocytes; test: P. falciparum Dual Gamete Formation Assay (PfDGFA), female readout (Pfs25-positive female gametes); format: cell-based, Plasmodium falciparum NF54; conditions: for Average inhibition female (%): average of replicates; for % inhibition female (individual replicates) R1: replicate R1; for % inhibition female (individual replicates) R3: replicate R3; for % inhibition female (individual replicates) R4: replicate R4
Method in brief: as §1

[3] = 2µM, 24h preincubation with gametocytes prior to induction of gametogenesis
[4] = 2µM, 24h preincubation, number of replicates with >50% inhibition in the male readout
[5] = 2µM, 24h preincubation, number of replicates with >50% inhibition in the female readout
[6] = 2µM, 24h preincubation, hits selected on >50% inhibition in the male readout across replicates
[7] = PfDGFA at 2µM, 24h preincubation
[8] = 2µM, 24h preincubation, hits selected on >50% inhibition in the female readout across replicates
[9] = PfDGFA at 2µM, 24h preincubation with gametocytes
[10] = number of replicates with >50% inhibition in the male readout, 2µM
[11] = number of replicates with >50% inhibition in the female readout, 2µM
[12] = PfDGFA at 2µM, 24h preincubation with gametocytes prior to induction of gametogenesis

Row | Compound | Average inhibition male (%) [1, 3] [%] | % inhibition male (individual replicates) R1 [1, 3] [%] | % inhibition male (individual replicates) R4 [1, 3] [%] | Average inhibition female (%) [2, 3] [%] | % inhibition female (individual replicates) R1 [2, 3] [%] | % inhibition female (individual replicates) R3 [2, 3] [%] | % inhibition female (individual replicates) R4 [2, 3] [%] | % inhibition male (individual replicates) R3 [1, 3] [%] | HitlevelM [1, 6] | Activity [1, 7] | HitlevelF [2, 8] | other results
1 | Oc1ccc2[nH]cc(C3CCN(CCCNCc4ccc(-c5ccccc5)cc4)CC3)c2c1 [TCMDC-139047] | 41.4 | 26.8 | 40.8 | 20.7 | 11.5 | 19.3 | 14.8 | – | – | – | – | HitlevelM [1, 4]: 1; HitlevelF [2, 5]: 0
2 | NC(CC1CC(=O)N1CC(=O)O)C(=O)O (stereo not drawn) [TCMDC-139050] | -4.7 | 15.3 | -29.8 | 6.8 | 12.5 | 4.8 | 14.4 | -15.7 | 0 | 0 | 0 | –
3 | COC(=O)c1ccc(-c2ccc(-c3cccnc3)cc2C)cc1 [TCMDC-139074] | 18.8 | 21.7 | 3.9 | 13.5 | 26.9 | 10.2 | 0.5 | 27.9 | 0 | 0 | 0 | –
4 | CN(C)CCCc1cc2c(cc1Cl)CCN2C(=O)Nc1ccc(-c2ccncc2)c2ccccc12 [TCMDC-139215] | 2.0 | 5.2 | 8.2 | 5.1 | 27.9 | -29.4 | 20.5 | 1.0 | 0 | 0 | 0 | –
5 | CN1CCN(c2cc3c(cc2Cl)CCN3C(=O)Nc2ccc(NC(=O)c3ccc(C(F)(F)F)cc3)cc2)CC1.Cl [TCMDC-139270] | – | – | – | – | – | – | – | – | – | – | – | Average inhibition male (%) [1, 9]: 84.1%; % inhibition male (individual replicates) R1 [1, 9]: 90.7%; % inhibition male (individual replicates) R3 [1, 9]: 63.5%; % inhibition male (individual replicates) R4 [1, 9]: 92.9%; HitlevelM [1, 10]: 4; Average inhibition female (%) [2, 9]: 59.6%; % inhibition female (individual replicates) R1 [2, 9]: 37.1%; % inhibition female (individual replicates) R3 [2, 9]: 50.9%; % inhibition female (individual replicates) R4 [2, 9]: 69.9%; HitlevelF [2, 11]: 3
6 | CCCCCCCN1CC[C@@H](CCCc2ccnc3ccc(OC)cc23)[C@@H](CCN)C1.O=C(O)C(=O)O [TCMDC-139278] | 60.9 | 62.0 | 48.5 | 13.3 | 23.8 | -1.7 | 20.4 | – | 2 | 0 | 0 | –
7 | COc1ccc(COc2cc(NCCCN)nc3ccccc23)cc1 [TCMDC-139286] | 30.7 | 52.7 | 44.0 | 19.5 | 25.0 | 18.0 | 26.8 | 36.6 | – | – | – | HitlevelM [1, 4]: 1; HitlevelF [2, 5]: 0
8 | COc1cc(NCC(O)CNc2cc(OC)c3ccccc3n2)nc2ccccc12 [TCMDC-139360] | 53.4 | 68.1 | 64.9 | 25.6 | 27.5 | 10.8 | 36.1 | 33.7 | – | – | – | HitlevelM [1, 4]: 2; HitlevelF [2, 5]: 0
9 | COc1ccc(C(=O)Nc2cc(Cl)c3c(c2)C2CCCN2CC3)cc1C(F)(F)F.Cl (stereo not drawn) [TCMDC-139417] | – | – | – | – | – | – | – | – | – | – | – | % inhibition male (individual replicates) R1 [1, 12]: -1.3%; % inhibition male (individual replicates) R4 [1, 12]: 9.8%; Average inhibition male (%) [1, 7]: 13.2%; % inhibition female (individual replicates) R1 [2, 12]: 2.5%; % inhibition female (individual replicates) R3 [2, 12]: -4.3%; % inhibition female (individual replicates) R4 [2, 12]: 1.3%; Average inhibition female (%) [2, 7]: 1.8%
10 | N=C(N)Nc1nc(-c2cccc(NC(=O)NCCc3c[nH]c4ccc(OCc5ccccc5)cc34)c2)cs1 [TCMDC-139557] | 6.6 | 1.3 | 10.9 | 5.9 | 1.1 | -17.0 | 37.8 | 4.0 | 0 | 0 | 0 | –
11 | CC(Cc1ccc(CNC(=O)c2ccc(CC(C)NCCc3cccc(Cl)c3)cc2)cc1)NCCc1cccc(Cl)c1 (stereo not drawn) [TCMDC-139659] | 33.9 | 26.3 | 42.9 | 5.1 | 10.4 | -19.4 | -1.7 | 2.8 | 1 | 0 | 0 | –
12 | O=C(/C=C/c1ccc(Cl)c(Cl)c1)N1CCC2CC(N3CCC(c4c[nH]c5ccccc45)CC3)CCC2C1 (stereo not drawn) [TCMDC-139677] | 6.9 | -0.85 | 12.3 | 4.1 | 10.8 | -1.7 | 7.4 | 2.4 | 0 | 0 | 0 | –
13 | CC(=O)N(Cc1ccc(CC(C)NCCc2cccc(Cl)c2)cc1)Cc1ccc(CC(C)NCCc2cccc(Cl)c2)cc1 (stereo not drawn) [TCMDC-139678] | 26.9 | 39.1 | 27.9 | 14.1 | 15.3 | 11.1 | 16.3 | 19.2 | 0 | 0 | 0 | –
14 | COc1ccc(CCNC(C)Cc2ccc(C(=O)Nc3ccc(CC(C)NCCc4cccc(Cl)c4)cc3)cc2)cc1 (stereo not drawn) [TCMDC-139750] | – | – | – | – | – | – | – | – | – | – | – | Average inhibition male (%) [1, 9]: 69.1%; % inhibition male (individual replicates) R1 [1, 9]: 78.2%; % inhibition male (individual replicates) R3 [1, 9]: 37.9%; % inhibition male (individual replicates) R4 [1, 9]: 84.9%; HitlevelM [1, 10]: 3; Average inhibition female (%) [2, 9]: 25.6%; % inhibition female (individual replicates) R1 [2, 9]: 25.4%; % inhibition female (individual replicates) R3 [2, 9]: 18.2%; % inhibition female (individual replicates) R4 [2, 9]: 15.5%; HitlevelF [2, 11]: 0
15 | CC(CCCC(=O)Nc1ccc(CC(C)NCCc2cccc(Cl)c2)cc1)NCCc1cccc(Cl)c1 (stereo not drawn) [TCMDC-139798] | 45.7 | 47.5 | 68.9 | 14.3 | 14.3 | 3.2 | 8.4 | 7.0 | 2 | 0 | 0 | –
16 | CC(CCCCCC(=O)Nc1ccc(CC(C)NCCc2cccc(Cl)c2)cc1)NCCc1cccc(Cl)c1 (stereo not drawn) [TCMDC-139800] | 45.2 | 25.8 | 77.6 | 20.4 | 18.8 | 1.8 | 5.6 | -13.9 | – | – | – | HitlevelM [1, 4]: 2; HitlevelF [2, 5]: 1
17 | CCOc1ccccc1CCNC(C)Cc1ccc(C(=O)Nc2ccc(CC(C)NCCc3cccc(Cl)c3)cc2)cc1 (stereo not drawn) [TCMDC-139805] | 59.5 | 59.5 | 86.9 | 24.4 | 22.1 | 9.3 | 29.9 | 21.2 | – | – | – | HitlevelM [1, 4]: 3; HitlevelF [2, 5]: 0
